This note sets out measurements from US6897316B2, “Substituted 2-phenyl-4-quinolone-3-carboxylic acid compounds and their use as antitumor agents” (China Medical University, priority 2003, dated 2005).

Common to all, as to assay type: cell-based, human
For assay [1], the system named is ileocecal carcinoma (HCT-8) cell line. Kind of assay: Activity against HTCL replication, HCT-8. Particulars: mean ED50. The method, then: (§1) Compounds were assayed for in vitro cytotoxicity in a panel of human tumor cell lines at the School of Pharmacy, University of North Carolina at Chapel Hill, according to procedures described previously [Lee, K. H., Lin, Y. M., Wu, T. S., Zhang, D. C., Yamagishi, T., Hayashi, T., Hall, I. H., Chang, J. J., Wu, R. Y., Yang, T. H. The cytotoxic principles of Prunella vulgaris, Psychotria serpens, and Hyptis capitata: Ursolic acid and related derivatives. Planta Med. 1988, 54, 308-11; Boyd, M. R. Status of the National Cancer Institute preclinical antitumor drug discovery screen: implications for selection of new agents for clinical trial. Devita, V. T., Jr. Hellman, S., Rosenberg, S. A., Eds, J. B. Cancer: Principles and Practice of Oncology Update, 1989, 3: pp1-12, Lippincoft: Philadephia; Monks, A., Scudiero, D., Skehan, P., Shoemaker, R., Paull, K., Vistica, D., Hose, C., Langley, J., Cronise, P., Vaigro-Wolff, A., Gray-Goodrich, M., Campbell, H., Mayo, J., Boyd, M. Feasibility of a high-flux anticancer drug screen using a diverse panel of cultured human tumor cell lines. J. Natl. Cancer Inst. 1991, 83, 757-66.] […]

The subject of assay [2] is Vincristine-resistant epidermoid carcinoma of the nasopharynx (KB-VIN) cell line. Briefly: Activity against HTCL replication, KB-VIN. The following applies: mean ED50. The protocol:
as §1

In assay [3] the test system is Renal cancer (CAKI) cell line. Kind of assay: Activity against HTCL replication, CAKI. The following applies: mean ED50. The protocol:
as §1

In assay [4] the test system is lung cancer cell line (A-549). Briefly: Preliminary cytotoxicity screening against lung cancer cell line A-549 (SRB assay). Particulars: Homo sapiens, A549; A-549; 50% reduction in absorbance at 562 nm relative to untreated cells, SRB assay; Table 1 (esters VII, acids IX); read-out: ED50 (cytotoxicity against A-549). The method, then: Compounds were assayed for in vitro cytotoxicity in a panel of human tumor cell lines at the School of Pharmacy, University of North Carolina at Chapel Hill, according to procedures described previously [Lee, K. H., Lin, Y. M., Wu, T. S., Zhang, D. C., Yamagishi, T., Hayashi, T., Hall, I. H., Chang, J. J., Wu, R. Y., Yang, T. H. The cytotoxic principles of Prunella vulgaris, Psychotria serpens, and Hyptis capitata: Ursolic acid and related derivatives. Planta Med. 1988, 54, 308-11; Boyd, M. R. Status of the National Cancer Institute preclinical antitumor drug discovery screen: implications for selection of new agents for clinical trial. Devita, V. T., Jr. Hellman, S., Rosenberg, S. A., Eds, J. B. Cancer: Principles and Practice of Oncology Update, 1989, 3: pp1-12, Lippincoft: Philadephia; Monks, A., Scudiero, D., Skehan, P., Shoemaker, R., Paull, K., Vistica, D., Hose, C., Langley, J., Cronise, P., Vaigro-Wolff, A., Gray-Goodrich, M., Campbell, H., Mayo, J., Boyd, M. Feasibility of a high-flux anticancer drug screen using a diverse panel of cultured human tumor cell lines. J. Natl. Cancer Inst. 1991, 83, 757-66.] The cell lines included human ovarian cancer (1A9), ileocecal carcinoma (HCT-8), lung carcinoma (A-549), glioblastoma (U-87-MG), bone (HOS), epidermoid carcinoma of the […] (KB), P-gp-expressing epidermoid carcinoma of the nasopharynx (KB-VIN), and melanoma (SKMEL-2) cell line. The cytotoxic effects of each compound were obtained as EC50 values, which represent the molar drug concentrations required to cause 50% inhibition.
Preliminary screening of antitumor activity was based on the cytotoxicity tested in human long cancer (A-549) cell lines. […] Among 3-carboxylic acid derivatives (IX), the cytotoxicity was not remarkable when the m-position of 2-phenyl group was substituted by OCH3 group (IX-3, 7, 11). ED50 values were greater than 20 μg/mL. […] The antitumor activity was not good, if there was no substitution on the m-position of 2-phenyl group ([…]).
Background: Sulforhodamine B stains cellular protein and so reports cell mass.

Values after ≈ are worked out from the molar mass of the structure shown.

Consider `COc1ccc2[nH]c(-c3cccc(F)c3)c(C(=O)O)c(=O)c2c1` [IX-8, 3′-Fluoro-6-methoxy-2-phenyl-4-quinolone-3-carboxylic acid], for which, in assay [1], the “ED50 HCT-8” value stood at 0.14 µg/mL (≈ 0.447 µM). The “ED50 KB-VIN” value in assay [2] was 0.13 µg/mL (≈ 0.415 µM). Also, in assay [3], the “ED50 CAKI” value stood at 10.0 µg/mL (≈ 31.9 µM). For the same compound, the IC50 in assay [4] came out at 0.19 µg/mL (≈ 0.606 µM).
